{"source": "patent US20010036965A1", "about": "“Iodo-nonoxynol-9-derivatives and methods for their use” (The Medical College of Hampton Roads, Eastern Virginia …, priority 1999, published 2001)", "key": {"human spermatozoa": {"tested_on": "human spermatozoa", "test": "Sander-Cramer assay, spermicidal activity", "format": "cell-based", "details": "for Highest Spermicidal Dilution, median / M.E.C. (minimum effective concentration): solvent dH2O; for Highest Spermicidal Dilution, median: N-9 equimolar 24, kill all spermatozoa within twenty seconds; for M.E.C. (minimum effective concentration): complete spermicidal activity within twenty seconds", "description": "N-9 and its iodinated derivatives were assessed in vitro for their ability to kill spermatozoa and HIV virions. The Sander-Cramer assay was performed in order to evaluate the spermicidal activity of the surfactants and their coprecipitates with PVP. This assay determines the minimum lethal dose, reported as a concentration, of spermicide needed to kill all spermatozoa within twenty seconds. The following oligomers were incorporated into coprecipitates with PVP for the in vitro assessment: IN-9 (n=1-17), IN-9 (n=8) and IN-9 (n=13). The neat liquids of N-9 and IN-9 were also assessed for their spermicidal activity. The quantity of active compound in each coprecipitate was determined by a normal phase HPLC analysis and presented as a weight by weight (w/w) percentage. The amount of active compound in each coprecipitate was adjusted by using the w/w percentages so that the assays were conducted using equimolar amounts of active compounds."}, "free HIV-1-RF": {"tested_on": "free HIV-1-RF", "test": "Cell-Free HIV Inactivation assay", "format": "cell-based", "details": "for Infec. Red. (log), Cell-Free HIV Inactivation: two minute incubation; for virucidal activity against cell-free HIV: sufficient if viral titer reduction of at least two log10 units", "description": "(§1) The compounds used in the Sander-Cramer assays (neat liquids and coprecipitates) were evaluated for their anti-HIV activity using the Cell-Free and Cell-Associated Inactivation Assays (see Table #3). Both assays employ solutions of active compound at varying concentrations in order to detect the optimal concentration to reduce the infectivity of a predetermined HIV viral load in the form of free HIV-1-RF or RF infected H9 cells. A solution of active compound is determined to have sufficient anti-viral activity if, when tested, a viral titer reduction of at least two log10 units occurs. N-9 and IN-9, in their neat liquid forms, were both found to be virucidal against cell-free and cell-associate HIV. […] The coprecipitates of N-9 (n=1-17) and IN-9 (n=1-17) were also virucidal in both assays."}, "RF infected H9 cells": {"tested_on": "RF infected H9 cells", "test": "Cell-Associated HIV Inactivation assay", "format": "cell-based, HIV-1", "details": "for Infec. Red. (log), Cell-Associated HIV Inactivation: two minute incubation; for virucidal activity against cell-associated HIV: sufficient if viral titer reduction of at least two log10 units", "description": "as §1"}, "HIV-1": {"tested_on": "HIV-1", "details": "background; cited from earlier work"}, "[1]": {"details": "background; cited from earlier work"}, "[2]": {"test": "Solubility and pH of test solutions in dH2O (Table 2)", "details": "in dH2O at initial concentration of the Sander-Cramer assay"}, "[3]": {"test": "Partition coefficient in n-octanol/water (log P) with radiolabeled species", "format": "physicochemical", "from_the_text": "Radiolabeled species ([^14C]nonoxynol-9, [^125I]iodinated nonoxynol-9) were used to obtain precise measurements of the log P values. Iodinated nonoxynol-9 was conceptualized to be more lipophilic based upon the work by chemists such as Hammett and Hansch. Hammett determined that the halogens (F, Cl, Br, I), when attached covalently to an aromatic ring, withdrew a portion of the electron density out of the ring. The decrease in electron density causes the ring to be less susceptible to induced polarization by solvent molecules, therefore increasing its lipophilic character. The hydrophobic parameter π, developed by Hansch, reflects a substituent's ability to impart lipophilic character on a molecule (π=log Psubstituted molecule−log […]). Hansch found experimentally that the halogens created a positive π value in most molecular systems which correlated with an increase in the lipophilicity of the compound. […] Additionally, the lengthening of the ethylene oxide chain allows for reduced irritation of the vaginal epithelial lining by reducing the formation of micelles. […] Iodide was chosen as the halogen to substitute nonoxynol-9 due to its relatively large σ and π values it produces when employed as a substituent. With an increase in the hydrophobic character, iodinated nonoxynol-9 should insert into sperm membranes more readily leading to an increase in spermicidal activity. In addition, the molecular weight and size of iodinated nonoxynol-9 is greater than that of nonoxynol-9 which leads to the possibility of the molecule being less bioavailable from vaginally placed dosage forms."}, "[4]": {"details": "as determined by 125IN-9, mean ± spread"}, "[5]": {"details": "as determined by [14C]N-9, mean ± spread"}}, "data": [{"molecule": "CCCCCCCCCc1ccc(OCCOCCOCCOCCOCCOCCOCCOCCOCCO)cc1", "note": "[N-9 (1-17), nonoxynol-9]", "values": [{"measurement": "Highest Spermicidal Dilution, median", "setting": "human spermatozoa", "value": 128.0}, {"measurement": "M.E.C. (minimum effective concentration)", "setting": "human spermatozoa", "value": 188.0, "unit": "µg/mL"}, {"measurement": "Infec. Red. (log), Cell-Free HIV Inactivation", "setting": "free HIV-1-RF; Conc. 0.0032 %", "value": 0.3, "unit": "log"}, {"measurement": "Infec. Red. (log), Cell-Free HIV Inactivation", "setting": "free HIV-1-RF; Conc. 0.01 %", "value": 2.3, "unit": "log"}, {"measurement": "Infec. Red. (log), Cell-Free HIV Inactivation", "setting": "free HIV-1-RF; Conc. 0.032 %", "value": ">4.5", "unit": "log"}, {"measurement": "Infec. Red. (log), Cell-Free HIV Inactivation", "setting": "free HIV-1-RF; Conc. 0.1 %", "value": ">3.5", "unit": "log"}, {"measurement": "virucidal activity against cell-free HIV", "setting": "free HIV-1-RF", "value": "virucidal"}, {"measurement": "Infec. Red. (log), Cell-Associated HIV Inactivation", "setting": "RF infected H9 cells; Conc. 0.0032 %", "value": 0.8, "unit": "log"}, {"measurement": "Infec. Red. (log), Cell-Associated HIV Inactivation", "setting": "RF infected H9 cells; Conc. 0.01 %", "value": 0.8, "unit": "log"}, {"measurement": "Infec. Red. (log), Cell-Associated HIV Inactivation", "setting": "RF infected H9 cells; Conc. 0.032 %", "value": 2.5, "unit": "log"}, {"measurement": "Infec. Red. (log), Cell-Associated HIV Inactivation", "setting": "RF infected H9 cells; Conc. 0.1 %", "value": 3.2, "unit": "log"}, {"measurement": "virucidal activity against cell-associated HIV", "setting": "RF infected H9 cells", "value": "virucidal"}, {"measurement": "inactivation of HIV-1 in vitro", "setting": "HIV-1", "value": "inactivates HIV-1 completely"}, {"measurement": "vaginal irritation", "setting": "[1]", "value": "increase with increased dose"}, {"measurement": "Solubility", "setting": "[2]", "value": "OK clear soln."}]}, {"molecule": "Mono-iodinated Nonoxynol-9 [IN-9 (n=4)]", "values": [{"measurement": "log P", "setting": "[3]; [4]", "value": "2.4 ± 0.2"}]}, {"molecule": "Mono-iodinated Nonoxynol-9 [IN-9 (n=8)]", "values": [{"measurement": "log P", "setting": "[3]; [4]", "value": "2.2 ± 0.1"}]}, {"molecule": "Mono-iodinated Nonoxynol-9 [IN-9 (n=11)]", "values": [{"measurement": "log P", "setting": "[3]; [4]", "value": "2.2 ± 0.1"}]}, {"molecule": "Mono-iodinated Nonoxynol-9 [IN-9 (n=13)]", "values": [{"measurement": "log P", "setting": "[3]; [4]", "value": "1.8 ± 0.1"}]}, {"molecule": "Mono-iodinated nonoxynol-9 [IN-9 (1-17)]", "values": [{"measurement": "MEC times less than that of neat N-9 (n=1-17)", "setting": "human spermatozoa; neat liquids", "value": "over 30 times"}, {"measurement": "Highest Spermicidal Dilution, median", "setting": "human spermatozoa", "value": 4096.0}, {"measurement": "M.E.C. (minimum effective concentration)", "setting": "human spermatozoa", "value": 6.0, "unit": "µg/mL"}, {"measurement": "Infec. Red. (log), Cell-Free HIV Inactivation", "setting": "free HIV-1-RF; Conc. 0.0032 %", "value": 0.3, "unit": "log"}, {"measurement": "Infec. Red. (log), Cell-Free HIV Inactivation", "setting": "free HIV-1-RF; Conc. 0.01 %", "value": 2.3, "unit": "log"}, {"measurement": "Infec. Red. (log), Cell-Free HIV Inactivation", "setting": "free HIV-1-RF; Conc. 0.032 %", "value": 3.3, "unit": "log"}, {"measurement": "Infec. Red. (log), Cell-Free HIV Inactivation", "setting": "free HIV-1-RF; Conc. 0.1 %", "value": ">4.5", "unit": "log"}, {"measurement": "effectiveness in killing HIV compared with N-9 (n=1-17)", "setting": "free HIV-1-RF; statement on Table 3, both assays", "value": "at least as effective in killing HIV as N-9 (n=1-17)"}, {"measurement": "virucidal activity against cell-free HIV", "setting": "free HIV-1-RF", "value": "virucidal"}, {"measurement": "effectiveness against cell-associated HIV compared with N-9", "setting": "RF infected H9 cells", "value": "slightly more effective than N-9"}, {"measurement": "Infec. Red. (log), Cell-Associated HIV Inactivation", "setting": "RF infected H9 cells; Conc. 0.0032 %", "value": 1.0, "unit": "log"}, {"measurement": "Infec. Red. (log), Cell-Associated HIV Inactivation", "setting": "RF infected H9 cells; Conc. 0.01 %", "value": 1.8, "unit": "log"}, {"measurement": "Infec. Red. (log), Cell-Associated HIV Inactivation", "setting": "RF infected H9 cells; Conc. 0.032 %", "value": 2.3, "unit": "log"}, {"measurement": "Infec. Red. (log), Cell-Associated HIV Inactivation", "setting": "RF infected H9 cells; Conc. 0.1 %", "value": ">5.0", "unit": "log"}, {"measurement": "virucidal activity against cell-associated HIV", "setting": "RF infected H9 cells", "value": "virucidal"}, {"measurement": "Solubility", "setting": "[2]", "value": "OK hazy soln."}]}, {"molecule": "Nonoxynol-9 [N-9 (n=4), reference compound]", "values": [{"measurement": "log P", "setting": "[3]; [5]", "value": "1.6 ± 0.05"}]}, {"molecule": "Nonoxynol-9 [N-9 (n=8), reference compound]", "values": [{"measurement": "log P", "setting": "[3]; [5]", "value": "1.4 ± 0.01"}]}, {"molecule": "Nonoxynol-9 [N-9 (n=11), reference compound]", "values": [{"measurement": "log P", "setting": "[3]; [5]", "value": "1.3 ± 0.07"}]}]}
